Measurements: ChEMBL document CHEMBL1201862, “PubChem BioAssay data set” (2004)
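Values below derive from 48-hour exposures of cells grown in 96-well plates, with endpoints linearly interpolated between the two concentrations bracketing the appropriate inhibition level. GI50 is the concentration that inhibits growth by half.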 The source made the active and inactive calls. Cut-off read from the data, not from the text of the source: active = GI50 up to about 1.1 µM and inactive = higher.

How the values were obtained:
Assay in all cases: DTP human tumour cell line panel, 48 h
SK-OV-3 = tested on: SK-OV-3
NCI-H522 = tested on: NCI-H522
ACHN = tested on: ACHN
OVCAR-8 = tested on: OVCAR-8
SNB-75 = tested on: SNB-75
HCT-116 = tested on: HCT-116
SK-MEL-2 = tested on: SK-MEL-2
CAKI-1 = tested on: CAKI-1
SF-539 = tested on: SF-539
SK-MEL-5 = tested on: SK-MEL-5
HCC 2998 = tested on: HCC 2998
Malme-3M = tested on: Malme-3M
U-251 = tested on: U-251
HOP-62 = tested on: HOP-62
A549 = tested on: A549
OVCAR-4 = tested on: OVCAR-4
OVCAR-3 = tested on: OVCAR-3
NCI-H23 = tested on: NCI-H23

Measured: GI50

CC1=C(C)CC2(SC1)C(=O)c1ccccc1C2=O
inactive: SK-OV-3 > 100 µM | NCI-H522 > 100 µM | ACHN > 100 µM | OVCAR-8 > 100 µM | SNB-75 > 100 µM | HCT-116 > 100 µM | SK-MEL-2 > 100 µM | CAKI-1 65.9 µM | SF-539 > 100 µM | SK-MEL-5 > 100 µM | HCC 2998 > 100 µM | Malme-3M > 100 µM | U-251 > 100 µM | HOP-62 > 100 µM | A549 > 100 µM | OVCAR-4 > 100 µM

Cc1cc(Cl)ccc1N1C(=O)C(=O)C(c2nc3ccccc3s2)C(=O)C1=O
inactive: SK-OV-3 > 100 µM | NCI-H522 > 100 µM | ACHN > 100 µM | OVCAR-8 > 100 µM | SNB-75 > 100 µM | HCT-116 > 100 µM | OVCAR-3 > 100 µM | SK-MEL-2 > 100 µM | CAKI-1 > 100 µM | SF-539 > 100 µM | SK-MEL-5 > 100 µM | NCI-H23 > 100 µM | Malme-3M > 100 µM | U-251 > 100 µM | HOP-62 > 100 µM | A549 > 100 µM | OVCAR-4 > 100 µM

COCCOCOc1ccc(OCOCCOC)c2c1C(=O)c1ccccc1C2=O
inactive: SK-OV-3 > 100 µM | ACHN 62.7 µM | OVCAR-8 45.4 µM | SNB-75 99.3 µM | HCT-116 29.4 µM | OVCAR-3 36.9 µM | SK-MEL-2 > 74.1 µM | CAKI-1 33.7 µM | SF-539 36.3 µM | SK-MEL-5 51.8 µM | NCI-H23 74.1 µM | HCC 2998 61.7 µM | Malme-3M 41.5 µM | U-251 41.9 µM | HOP-62 > 100 µM | A549 46.6 µM | OVCAR-4 59.4 µM

NC(=O)/C=C/C(=O)O
inactive: SK-OV-3 > 5000 µM | NCI-H522 > 5000 µM | ACHN > 5000 µM | OVCAR-8 > 5000 µM | SNB-75 > 5000 µM | HCT-116 > 5000 µM | SK-MEL-2 > 5000 µM | SF-539 > 5000 µM | SK-MEL-5 > 5000 µM | NCI-H23 > 5000 µM | Malme-3M > 5000 µM | U-251 > 5000 µM | HOP-62 > 5000 µM | A549 > 5000 µM | OVCAR-4 > 5000 µM

CC(=O)OCCOCNC(=S)N/N=C(\C)c1cccs1
inactive: SK-OV-3 > 100 µM | NCI-H522 > 100 µM | ACHN > 100 µM | OVCAR-8 > 100 µM | SNB-75 > 100 µM | HCT-116 > 100 µM | OVCAR-3 > 100 µM | SK-MEL-2 > 100 µM | SF-539 > 100 µM | SK-MEL-5 > 100 µM | NCI-H23 > 100 µM | HCC 2998 > 100 µM | Malme-3M > 100 µM | U-251 > 100 µM | HOP-62 > 100 µM | A549 > 100 µM | OVCAR-4 > 100 µM

O=C(CNC(=O)OCc1ccccc1)Oc1ccccc1
inactive: SK-OV-3 > 100 µM | NCI-H522 > 100 µM | ACHN > 100 µM | OVCAR-8 > 100 µM | SNB-75 > 100 µM | HCT-116 > 100 µM | OVCAR-3 > 100 µM | SK-MEL-2 > 100 µM | SF-539 > 100 µM | SK-MEL-5 > 100 µM | NCI-H23 > 100 µM | HCC 2998 > 100 µM | Malme-3M > 100 µM | U-251 > 100 µM | HOP-62 > 100 µM | A549 > 100 µM | OVCAR-4 > 100 µM

CC(C)C1=CC23CCC4C(C)(C(=O)O)CCCC4(C)C2CC1C1C(=O)N(c2ccccc2N2C(=O)C4C5CC6C7(C)CCCC(C)(C(=O)O)C7CCC6(C=C5C(C)C)C4C2=O)C(=O)C13 (stereo not given)
inactive: NCI-H522 8.73 µM | ACHN 10.2 µM | OVCAR-8 4.52 µM | HCT-116 5.77 µM | OVCAR-3 10.9 µM | SK-MEL-2 12.2 µM | SF-539 3.1 µM | SK-MEL-5 5.83 µM | NCI-H23 2.47 µM | HCC 2998 4.01 µM | Malme-3M 13.1 µM | U-251 3.16 µM | HOP-62 4.67 µM | A549 14 µM | OVCAR-4 18 µM

Cc1ccc(-n2c(C)nc3c2C(=O)c2ccccc2C3=O)cc1
inactive: SK-OV-3 > 100 µM | NCI-H522 34.7 µM | ACHN 27.9 µM | OVCAR-8 17.4 µM | SNB-75 34.4 µM | HCT-116 5.73 µM | OVCAR-3 21.8 µM | SK-MEL-2 40.7 µM | SF-539 10.4 µM | SK-MEL-5 15.2 µM | NCI-H23 25.9 µM | HCC 2998 57.5 µM | Malme-3M 20.4 µM | U-251 9.46 µM | HOP-62 41.2 µM | A549 28.9 µM | OVCAR-4 82.8 µM

COC(=O)c1c2c(cc3c1CC1(Cc4cc5c(c(C(C)=O)c4C1)CCC5)C3)CCC2 (stereo not given)
inactive: NCI-H522 17 µM | ACHN 40 µM | OVCAR-8 54.5 µM | SNB-75 24.6 µM | HCT-116 28.6 µM | OVCAR-3 > 100 µM | CAKI-1 34.2 µM | SF-539 34.6 µM | SK-MEL-5 31.8 µM | NCI-H23 64.1 µM | HCC 2998 > 100 µM | Malme-3M 16.4 µM | U-251 78.3 µM | HOP-62 42 µM | A549 27.5 µM | OVCAR-4 36.7 µM

OC1C2CCC1C1C3C=CC(C3)C21 (stereo not given)
inactive: SK-OV-3 > 100 µM | NCI-H522 50.9 µM | ACHN 95.9 µM | OVCAR-8 > 100 µM | SNB-75 46.6 µM | HCT-116 79.4 µM | OVCAR-3 > 100 µM | SK-MEL-2 32.8 µM | CAKI-1 64.9 µM | SK-MEL-5 87.3 µM | NCI-H23 52.1 µM | Malme-3M > 100 µM | U-251 > 100 µM | HOP-62 > 100 µM | A549 57 µM | OVCAR-4 > 100 µM

COc1ccc(NC(=O)CSc2nnc(-c3ccc(NC(C)=O)cc3)o2)cc1
inactive: SK-OV-3 44.1 µM | NCI-H522 14.5 µM | ACHN 16.7 µM | OVCAR-8 20.7 µM | SNB-75 63.1 µM | HCT-116 14.6 µM | OVCAR-3 17.8 µM | SK-MEL-2 19.1 µM | SF-539 > 10 µM | SK-MEL-5 13.2 µM | NCI-H23 10.7 µM | HCC 2998 19.7 µM | Malme-3M 20.6 µM | U-251 15.7 µM | HOP-62 34.1 µM | A549 20.9 µM | OVCAR-4 15.7 µM

COc1ccc(-c2ccccc2)c2[nH]c3c(c12)CCNC3=O
inactive: NCI-H522 > 100 µM | OVCAR-8 > 100 µM | SNB-75 > 100 µM | HCT-116 > 100 µM | OVCAR-3 > 100 µM | CAKI-1 > 100 µM | SF-539 > 100 µM | SK-MEL-5 > 100 µM | NCI-H23 > 100 µM | HCC 2998 > 100 µM | Malme-3M > 100 µM | U-251 > 100 µM | HOP-62 > 100 µM | A549 > 100 µM | OVCAR-4 > 100 µM

CC(CNCCCNCCNCCCNCO)[N+](=O)[O-] (stereo not given)
inactive: SK-OV-3 > 100 µM | ACHN 16.7 µM | OVCAR-8 14.4 µM | SNB-75 20.8 µM | HCT-116 10.8 µM | OVCAR-3 16.5 µM | SK-MEL-2 15.5 µM | CAKI-1 6.11 µM | SF-539 15.4 µM | SK-MEL-5 16.3 µM | NCI-H23 15 µM | HCC 2998 16.6 µM | Malme-3M 2.07 µM | U-251 15.9 µM | HOP-62 > 100 µM | A549 21.9 µM | OVCAR-4 14.5 µM

CC(=O)CN(Cc1cc(C)c2c(c1)c1ccccc1n2Cc1ccccc1)S(=O)(=O)c1ccc(C)cc1
inactive: SK-OV-3 > 100 µM | NCI-H522 > 100 µM | OVCAR-8 > 100 µM | SNB-75 > 100 µM | HCT-116 > 100 µM | OVCAR-3 > 100 µM | SK-MEL-2 > 100 µM | CAKI-1 > 100 µM | SF-539 > 100 µM | SK-MEL-5 > 100 µM | NCI-H23 > 100 µM | HCC 2998 > 100 µM | Malme-3M > 100 µM | HOP-62 > 100 µM | A549 > 100 µM | OVCAR-4 > 100 µM

CN1C2(c3ccccc3)C(C(=O)c3ccccc3)=C(C(=O)c3ccccc3)C1(c1ccccc1)c1c(-c3ccccc3)sc(-c3ccccc3)c12
inactive: SK-OV-3 > 100 µM | NCI-H522 > 100 µM | ACHN > 100 µM | OVCAR-8 > 100 µM | SNB-75 > 100 µM | HCT-116 > 100 µM | OVCAR-3 > 100 µM | CAKI-1 > 100 µM | SF-539 > 100 µM | SK-MEL-5 > 100 µM | NCI-H23 > 100 µM | HCC 2998 > 100 µM | Malme-3M > 100 µM | U-251 > 100 µM | HOP-62 > 100 µM | A549 > 100 µM | OVCAR-4 > 100 µM

C/C=C/C(C#N)(/C=C/c1ccccc1)OP1(=O)OC(c2ccccc2)C(C)N1C (stereo not given)
inactive: SK-OV-3 25.8 µM | NCI-H522 20.7 µM | ACHN 26.9 µM | OVCAR-8 17.9 µM | SNB-75 20.5 µM | HCT-116 16.6 µM | OVCAR-3 19.5 µM | SK-MEL-2 18.6 µM | CAKI-1 23.3 µM | SF-539 17.8 µM | SK-MEL-5 16.9 µM | HCC 2998 14 µM | Malme-3M 18.9 µM | U-251 17.2 µM | HOP-62 19.4 µM | A549 20 µM

COc1ccccc1CCc1cc(OC)c(OC)c(OC)c1
inactive: NCI-H522 26.8 µM | ACHN 51.9 µM | OVCAR-8 45.9 µM | SNB-75 41.6 µM | HCT-116 37.1 µM | OVCAR-3 41.3 µM | CAKI-1 57.8 µM | SF-539 65.3 µM | SK-MEL-5 19.5 µM | Malme-3M 49.5 µM | U-251 40.4 µM | HOP-62 > 100 µM | A549 41.1 µM | OVCAR-4 40.6 µM
